Data published in US6689757B1, “Methods for vaccination and vaccines therefor” (M.L. Laboratories PLC, priority 1996, dated 2004).
Entries after “also recorded” stand apart in the source; their conditions may differ. Where two headings read alike, the source gives them in different places.

How the values were obtained:
human dendritic cells = format: cell-based
COS cells = format: cell-based; settings: pCMVβ DNA; medium with chloroquine; 5 hours; triplicate; FIG. 7
[1] = Photon correlation spectroscopy (PCS) particle size of K6CL22-DNA complexes; format: physicochemical
[2] = Zeta potential analysis of K6CL22-DNA complexes; format: physicochemical; settings: peptide:DNA ratio 1.4:1; Hepes
cells = format: cell-based

Row | Substance | optimal peptide:DNA ratio for transfection (human dendritic cells; […], FIGS. 16 and 17) | transfection efficiency, CL26-complexed DNA compared to CL22-complexed DNA (human dendritic cells; […], FIGS. 16 and 17) | transfection efficiency, CL26-complexed DNA compared to CL22-complexed DNA (human dendritic cells; peptide/DNA ratio between 1 and 1.8, FIG. 18) | transfection of COS cells (β-galactosidase activity, relative light units per mg of protein) (COS cells) | size of large particles/aggregates of complex ([1]; 150 mM NaCl, after one hour at room temperature, DNA 40 μg/ml) | average (Zav) particle size ([1]; K6CL22-DNA complexes) | average ratio at which aggregation occurs ([1]; K6CL22-DNA complexes) | ratio range in which aggregation occurs ([1]; K6CL22-DNA complexes) | zeta potential of the complex [2] | transfection of dendritic cells (human dendritic cells; complexes of K6Cl22 peptide and pCMVb) | transfection efficiency, CL22-complexed DNA compared to CL26-complexed DNA (human dendritic cells; peptide/DNA ratio between 2 and 2.6, FIG. 18) | peptide/DNA ratio with highest transfection efficiency (human dendritic cells; ratio varied 1.2-2.6, 40 μM chloroquine, […], FIG. 10) | effect of coadministered chloroquine on transfection efficiency (cells)
1 | H-KKKKKKKKKKKKGGFLGFWRGENGRKTRSAYERMCNILKGK-OH [CL26] | 1.6 mg CL26:1 mg DNA | higher efficiency | higher efficiency |  |  |  |  |  |  |  |  |  | 
2 | NH2-KKKKKKGGFLGFWRGENGRKTRSAYERMCNILKGK-COOH (H-KKKKKKGGFLGFWRGENGRKTRSAYERMCNILKGK-OH) [K6CL22] | 1.6-2.2 mg CL22:1 mg DNA |  |  | have been transfected; also recorded: very efficient transfection | approx. 100 nm | approximately 100 nm | 1.4 μg peptide/μg DNA | 1.2-1.6 μg peptide/μg DNA | zero | have been transfected | greater | 1.4-2.0 | Increased transfection efficiency
